Results taken from patent US12077503B2, “Substituted cyclic amides and their use as herbicides” (FMC CORPORATION, priority 2015, dated 2024).

How the values were obtained:
Type in all cases: in vivo
Kochia (Kochia scoparia) [1] = assay: Test A postemergence; settings: Bassia scoparia, post-emergence, 240 h, Postemergence, read-out: Kochia plant response rating (0 to 100 scale); for pest or weed control at 125 g/ha: 125 g ai/ha, visual rating about 10 d after treatment; for pest or weed control at 31 g/ha: 31 g ai/ha, 0 is no effect, 100 is complete control
Outline: (§1)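 Treatment is preemergence as a directed soil spray after planting, or postemergence at the one- to two-leaf stage, with test chemical in a non-phytotoxic solvent mixture plus surfactant. Plants stay in the greenhouse about 10 d before visual injury scoring on a 0 to 100 scale versus untreated controls.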

[2] = test system: Galium (catchweed bedstraw, Galium aparine); assay: Test A postemergence; settings: Galium, post-emergence, 240 h, Postemergence, read-out: Galium plant response rating (0 to 100 scale); for pest or weed control at 125 g/ha: 125 g ai/ha, visual rating about 10 d after treatment; for pest or weed control at 31 g/ha: 31 g ai/ha, 0 is no effect, 100 is complete control
Outline: as §1

[3] = test system: giant foxtail (Setaria faberii); assay: Test A postemergence; settings: Setaria faberi, post-emergence, 240 h, Postemergence, read-out: Foxtail, Giant plant response rating (0 to 100 scale); for pest or weed control at 125 g/ha: 125 g ai/ha, visual rating about 10 d after treatment; for pest or weed control at 31 g/ha: 31 g ai/ha, 0 is no effect, 100 is complete control
Outline: as §1

[4] = test system: ragweed (common ragweed, Ambrosia elatior); assay: Test A postemergence; settings: Ambrosia artemisiifolia, post-emergence, 240 h, Postemergence, read-out: Ragweed plant response rating (0 to 100 scale); for pest or weed control at 125 g/ha: 125 g ai/ha, visual rating about 10 d after treatment; for pest or weed control at 31 g/ha: 31 g ai/ha, 0 is no effect, 100 is complete control
Outline: as §1

[5] = test system: barnyardgrass (Echinochloa crus-galli); assay: Test A postemergence; settings: Echinochloa crus-galli, post-emergence, 240 h, Postemergence; for pest or weed control at 125 g/ha: 125 g ai/ha, visual rating about 10 d after treatment, read-out: Barnyardgrass plant response rating (0 to 100 scale, 0 no effect, 100 complete control); for pest or weed control at 31 g/ha: 31 g ai/ha, 0 is no effect, 100 is complete control, read-out: Barnyardgrass plant response rating (0 to 100 scale)
Outline: as §1

[6] = test system: wheat (Triticum aestivum); assay: Test A postemergence; settings: Triticum aestivum, post-emergence, 240 h, Postemergence, read-out: Wheat plant response rating (0 to 100 scale); for plant injury at 125 g/ha: 125 g ai/ha, visual rating about 10 d after treatment; for plant injury at 31 g/ha: 31 g ai/ha, 0 is no effect, 100 is complete control
Outline: as §1

corn (Zea mays) = assay: Test A postemergence; settings: Zea mays, post-emergence, 240 h, Postemergence, read-out: Corn plant response rating (0 to 100 scale); for plant injury at 125 g/ha: 125 g ai/ha, visual rating about 10 d after treatment; for plant injury at 31 g/ha: 31 g ai/ha, 0 is no effect, 100 is complete control
Outline: as §1

[7] = test system: pigweed (Amaranthus retroflexus); assay: Test A postemergence; settings: Amaranthus retroflexus, post-emergence, 240 h, Postemergence, read-out: Pigweed plant response rating (0 to 100 scale); for pest or weed control at 125 g/ha: 125 g ai/ha, visual rating about 10 d after treatment; for pest or weed control at 31 g/ha: 31 g ai/ha, 0 is no effect, 100 is complete control
Outline: as §1

[8] = test system: ryegrass, Italian (Italian ryegrass, Lolium multiflorum); assay: Test A postemergence; settings: Lolium multiflorum, post-emergence, 240 h, Postemergence, read-out: Ryegrass, Italian plant response rating (0 to 100 scale); for pest or weed control at 125 g/ha: 125 g ai/ha, visual rating about 10 d after treatment; for pest or weed control at 31 g/ha: 31 g ai/ha, 0 is no effect, 100 is complete control
Outline: as §1

[9] = test system: blackgrass (Alopecurus myosuroides); assay: Test A postemergence; settings: Alopecurus myosuroides, post-emergence, 240 h, Postemergence, read-out: Blackgrass plant response rating (0 to 100 scale); for pest or weed control at 125 g/ha: 125 g ai/ha, visual rating about 10 d after treatment; for pest or weed control at 31 g/ha: 31 g ai/ha, 0 is no effect, 100 is complete control
Outline: as §1

[10] = test system: sedge, umbrella (small-flower umbrella sedge, Cyperus difformis); assay: Test B flooded paddy test; settings: Cyperus difformis, 360 h, Flood, 250 g ai/ha; visually evaluated after 13 to 15 d; read-out: Plant response rating, Sedge, Umbrella (0 to 100 scale where 0 is no effect and 100 is complete control)
Outline: (§2)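 Compound goes directly into floodwater once pots are flooded 3 cm above soil, targeting plants at two leaves; the water depth is then held for the test duration. Plants sit 13–15 d in a greenhouse and are rated visually, 100 denoting complete control.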

[11] = test system: barnyardgrass (Echinochloa crus-galli); assay: Test B flooded paddy test; settings: Echinochloa crus-galli, 360 h, Flood, 250 g ai/ha; visually evaluated after 13 to 15 d; read-out: Plant response rating, Barnyardgrass (0 to 100 scale where 0 is no effect and 100 is complete control)
Outline: as §2

rice (Oryra sativa) = assay: Test B flooded paddy test; settings: Oryza sativa, 360 h, Flood, 250 g ai/ha; visually evaluated after 13 to 15 d; read-out: Plant response rating, Rice (0 to 100 scale where 0 is no effect and 100 is complete control)
Outline: as §2

[12] = test system: ducksalad (Heteranthera limosa); assay: Test B flooded paddy test; settings: Heteranthera limosa, 360 h, Flood, 250 g ai/ha; visually evaluated after 13 to 15 d; read-out: Plant response rating, Ducksalad (0 to 100 scale where 0 is no effect and 100 is complete control)
Outline: as §2

Kochia (Kochia scoparia) [13] = assay: Test A preemergence; settings: Bassia scoparia, pre-emergence, 240 h, Preemergence; for pest or weed control at 31 g/ha: 31 g ai/ha, 0 to 100 scale where 0 is no effect and 100 is complete control, read-out: Kochia plant response rating; for pest or weed control at 125 g/ha: 125 g ai/ha, 0 to 100 scale (0 no effect, 100 complete control), read-out: Plant response rating, Kochia
Outline: as §1

[14] = test system: giant foxtail (Setaria faberii); assay: Test A preemergence; settings: Setaria faberi, pre-emergence, 240 h, Preemergence; for pest or weed control at 31 g/ha: 31 g ai/ha, 0 to 100 scale where 0 is no effect and 100 is complete control, read-out: Foxtail, Giant plant response rating; for pest or weed control at 125 g/ha: 125 g ai/ha, 0 to 100 scale (0 no effect, 100 complete control), read-out: Plant response rating, Foxtail, Giant
Outline: as §1

[15] = test system: ragweed (common ragweed, Ambrosia elatior); assay: Test A preemergence; settings: Ambrosia artemisiifolia, pre-emergence, 240 h, Preemergence; for pest or weed control at 31 g/ha: 31 g ai/ha, 0 to 100 scale where 0 is no effect and 100 is complete control, read-out: Ragweed plant response rating; for pest or weed control at 125 g/ha: 125 g ai/ha, 0 to 100 scale (0 no effect, 100 complete control), read-out: Plant response rating, Ragweed
Outline: as §1

[16] = test system: barnyardgrass (Echinochloa crus-galli); assay: Test A preemergence; settings: Echinochloa crus-galli, pre-emergence, 240 h, Preemergence; for pest or weed control at 31 g/ha: 31 g ai/ha, 0 to 100 scale where 0 is no effect and 100 is complete control, read-out: Barnyardgrass plant response rating; for pest or weed control at 125 g/ha: 125 g ai/ha, 0 to 100 scale (0 no effect, 100 complete control), read-out: Plant response rating, Barnyardgrass
Outline: as §1

[17] = test system: pigweed (Amaranthus retroflexus); assay: Test A preemergence; settings: Amaranthus retroflexus, pre-emergence, 240 h, Preemergence; for pest or weed control at 31 g/ha: 31 g ai/ha, 0 to 100 scale where 0 is no effect and 100 is complete control, read-out: Pigweed plant response rating; for pest or weed control at 125 g/ha: 125 g ai/ha, 0 to 100 scale (0 no effect, 100 complete control), read-out: Plant response rating, Pigweed
[18] = test system: ryegrass, Italian (Italian ryegrass, Lolium multiflorum); assay: Test A preemergence; settings: Lolium multiflorum, pre-emergence, 240 h, Preemergence; for pest or weed control at 31 g/ha: 31 g ai/ha, 0 to 100 scale where 0 is no effect and 100 is complete control, read-out: Ryegrass, Italian plant response rating; for pest or weed control at 125 g/ha: 125 g ai/ha, 0 to 100 scale (0 no effect, 100 complete control), read-out: Plant response rating, Ryegrass, Italian
Outline: as §1

SMILES | pest or weed control at 125 g/ha (Kochia (Kochia scoparia) [1]) [%] | pest or weed control at 31 g/ha (Kochia (Kochia scoparia) [1]) [%] | pest or weed control at 125 g/ha [2] [%] | pest or weed control at 31 g/ha [2] [%] | pest or weed control at 125 g/ha [3] [%] | pest or weed control at 31 g/ha [3] [%] | pest or weed control at 125 g/ha [4] [%] | pest or weed control at 31 g/ha [4] [%] | pest or weed control at 125 g/ha [5] [%] | pest or weed control at 31 g/ha [5] [%] | plant injury at 125 g/ha [6] [%] | plant injury at 31 g/ha [6] [%] | plant injury at 125 g/ha (corn (Zea mays)) [%] | plant injury at 31 g/ha (corn (Zea mays)) [%] | pest or weed control at 125 g/ha [7] [%] | pest or weed control at 31 g/ha [7] [%] | pest or weed control at 125 g/ha [8] [%] | pest or weed control at 31 g/ha [8] [%] | pest or weed control at 125 g/ha [9] [%] | pest or weed control at 31 g/ha [9] [%] | also measured
CC(C)=Cc1cc([C@H]2CN(C)C(=O)[C@@H]2C(=O)Nc2cccc(F)c2F)ccc1C(F)(F)F [Compound 1337] | 20 | 20 | 0 | 0 | 40 | 20 | 0 | 0 | 30 | 20 | 20 | 0 | 0 | 0 | 20 | 0 | 20 | 0 | 0 | 0 | pest or weed control at 250 g/ha [10]: 0%; pest or weed control at 250 g/ha [11]: 20%; pest or weed control at 250 g/ha (rice (Oryra sativa)): 20%; pest or weed control at 250 g/ha [12]: 20%; pest or weed control at 31 g/ha (Kochia (Kochia scoparia) [13]): 0%; pest or weed control at 125 g/ha (Kochia (Kochia scoparia) [13]): 0%; pest or weed control at 31 g/ha [14]: 40%; pest or weed control at 125 g/ha [14]: 80%; pest or weed control at 31 g/ha [15]: 0%; pest or weed control at 125 g/ha [15]: 0%; pest or weed control at 31 g/ha [16]: 50%; pest or weed control at 125 g/ha [16]: 80%; pest or weed control at 31 g/ha [17]: 0%; pest or weed control at 125 g/ha [17]: 0%; pest or weed control at 31 g/ha [18]: 20%; pest or weed control at 125 g/ha [18]: 70%
COc1c([C@H]2CN(C)C(=O)[C@@H]2C(=O)Nc2ccccc2F)cccc1C(F)(F)F [Compound 1338] | 0 | 0 | 30 | 0 | 80 | 50 | 0 | 0 | 80 | 70 | 0 | 0 | 0 | 0 | 0 | 0 | 0 | 0 | 0 | 0 | pest or weed control at 250 g/ha [10]: 0%; pest or weed control at 250 g/ha [11]: 90%; pest or weed control at 250 g/ha (rice (Oryra sativa)): 25%; pest or weed control at 250 g/ha [12]: 100%; pest or weed control at 31 g/ha (Kochia (Kochia scoparia) [13]): 0%; pest or weed control at 125 g/ha (Kochia (Kochia scoparia) [13]): 0%; pest or weed control at 31 g/ha [14]: 80%; pest or weed control at 125 g/ha [14]: 90%; pest or weed control at 31 g/ha [15]: 0%; pest or weed control at 125 g/ha [15]: 0%; pest or weed control at 31 g/ha [16]: 90%; pest or weed control at 125 g/ha [16]: 100%; pest or weed control at 31 g/ha [17]: 0%; pest or weed control at 125 g/ha [17]: 0%; pest or weed control at 31 g/ha [18]: 0%; pest or weed control at 125 g/ha [18]: 0%
